Source: patent US20050209298A1, “Method of photodynamic diagnosis for vascular diseases” (HAMAMATSU PHOTONICS K.K, priority 2002, published 2005)

Assays:
[1] = system: Human Umbilical Vein Endothelial Cells (HUVECS); test: Effects of PDT on inflamed human umbilical vein endothelial cells (MTT viability); format: cell-based; conditions: non-irradiated groups (0 J/cm^2); 25 or 50 μg/mL
Description: Test 1 (in vitro Test): Effects of PDT on Human Umbilical Vein Endothelial Cells (HUVECS)
As a first step, we determined if cell death of inflamed HUVECs can be induced by PDT.
HUVECs were seeded in a culture medium at […]. After a predetermined culture period, IL-1β(1 ng/mL) and TNF-α(10 ng/mL) were added to stimulate the cells and, thus, cause inflammation of the cells. After a 1-hour stimulation period, the cells were divided into two groups, and 25 μg/ml of ATX-S10•Na of the present invention was added to one group and 50 μg/ml of ATX-S10•Na to the other group. Subsequently, the cells were incubated at 37° C. for 24 hours.
After the incubation period, laser was irradiated onto the cultured cells (each dosage group was divided into five subgroups, which were irradiated at 0, 15, 30, 50, and 100 J/cm^2). 24 hours after the irradiation, the viability of HUVECs was determined by MTT assay.

[2] = system: Keratinocytes from a patient with inflammatory keratosis; test: Cytotoxicity of PDT against cultured keratinocytes; format: cell-based, human; conditions: 50 μg/mL; laser 10 J/cm^2; 6 hours after laser irradiation; viable cells prior to irradiation = 100%
Description: FIG. 6 is a graph showing cytotoxic effects of PDT using ATX-S10•Na of the present invention on cultured keratinocytes. 50 μg/mL of ATX-S10•Na of the present invention was added to the cell culture. After a predetermined culture period, the cells were washed with PBS and were irradiated with laser at 10 J/cm^2. The viability of the keratinocytes was determined 1, 2, 3, 6, 12, and 24 hours after the irradiation and was plotted on a graph.
Test 3 (in vitro Test): Cytotoxicity Against Cultured Keratinocytes
Keratinocytes were collected from a patient with inflammatory keratosis and were cultured at 37° C. for 24 hours. To the cell culture, 50 μg/mL of ATX-S10•Na of the present invention was added and the cells were further cultured under the same conditions.
Assuming the initial number of the viable cells in the culture medium prior to laser irradiation to be 100%, the viability of the cells was determined at 1, 2, 3, 6, 12, and 24 hours after the irradiation. As shown, 75% of the keratinocytes incubated with ATX-S10•Na died 6 hours after laser irradiation.

[3] = system: type II collagen-induced arthritis; test: Effects of PDT on model mice with type II collagen-induced arthritis; format: in vivo; conditions: 5 mg/kg i.v.
Description: Test 2 (in vivo Test): Effects of PDT on Model Mice with Type II Collagen-Induced Arthritis Male DBA/1 mice, aged6 to 8 weeks and weighing 15 to 18 g, were used. Arthritis was induced by type II collagen according to the following schedule. On Day 0, 2 mg. of anti-type II collagen antibody cocktail was intraperitoneally injected. On Day 1, 2 mg of anti-type II collagen antibody cocktail was again intraperitoneally injected. On Day 2 and Day 3, 50 μg of lipopolysaccharide (LPS) was intraperitoneally injected to induce type II collagen arthritis. On Day 5, induction of type II collagen arthritis was confirmed. A test group of 5 animals and a control group of 3 animals were intravenously injected with 5 mg/kg of ATX-S10•Na. The test group was exposed to laser irradiation (dose: 30 J/cm^2) 3 hours after administration of ATX-S10•Na. […] Each animal was perfusion-fixed, and joint tissue was collected and stained with Safranin 0. The resulting decalcified tissue sample was subjected to histological analysis.

TPA-caused dermatitis = test: TPA-induced dermatitis in mouse skin: skin accumulation and PDT after ATX-S10•Na ointment; format: in vivo, mice; conditions: 1% ointment, 3 hours
Description: Test 4 (in vivo Test): Induction of Dermatitis in Mouse Skin by Treatment with Tetradecanoyl Phorbol Acetate (TPA) and Therapeutic Effects of PDT Following Application of ATX-S10•Na Ointment Using a hydrophilic ointment base described in Japanese Pharmacopoeia, two hydrophilic ointments, one containing 1% of ATX-S10•Na and the other 10% of the compound, were prepared by a common pharmaceutical technique. Male DBA/1 mice, aged 6 to 8 weeks and weighing 15 to 18 g, were shaved with a clipper and a razor. TPA was then applied to the skin to induce dermatitis. 3) To a test group, the hydrophilic ointment containing 1% ATX-S10•Na was applied. The ointment was applied to the region of the skin where dermatitis was induced and was rinsed off after 3 hours. To a control group, an ATX-S10•Na-free hydrophilic ointment was applied and was also rinsed off after application. […] The test group was then divided into two subgroups: one group was irradiated with laser at 100 J/cm^2 and the other group was not irradiated. Skin histology of each animal was observed.

## C=CC1=C(C)C2=CC3=C(/C=C/NO)C(C)(O)C(=CC4=NC(=CC5=NC(=CC1=N2)C(C)=C5CCC(=O)N[C@@H](CC(=O)[O-])C(=O)[O-])C(CCC(=O)N[C@@H](CC(=O)[O-])C(=O)[O-])=C4C)N3.[Na+].[Na+].[Na+].[Na+] (stereo partly shown) [ATX-S10•Na]
[1]
  cell death of HUVECs: no cell death was observed
[2]
  keratinocytes died: 75%
[3]; laser 30 J/cm^2, test group
  synovial infiltration (histological analysis of joint tissue): synovial infiltration was suppressed
[3]; no laser irradiation (control group)
  synovial infiltration (histological analysis of joint tissue): significant infiltration of synovial cells
[3]; no laser irradiation (control group), Day 14
  clinical arthritis score: 4
TPA-caused dermatitis; laser 100 J/cm^2
  TPA-caused dermatitis inflamed region (skin histology): significant decrease in the inflamed region
TPA-caused dermatitis; non-irradiated group
  TPA-caused dermatitis inflamed region (skin histology): sustained
